# Structures can show the parent of a compound that is named as a salt. Where two headings read alike, the source gives them in different places.
# B1: Neocarzinostatin (protein, UniProt P0A3R9 35-147, looked up)
# Neocarzinostatin: AAPTATVTPSSGLSDGTVVKVAGAGLQAGTAYDVGQCAWVDTGVLACNPADFSSVTADANGSASTSLTVRRSFEGFLFDGTRWGTVDCTTAACQVGLSDAAGNGPEGVAISFN
# modifications: enediyne chromophore
# Tests used:
# [1] = in vivo; details: male, C57BL/6, mouse
# [2] = system: 15 types of human cancer cells; assay: Cell growth inhibition test, MTT, average GI 50; assay type: cell-based; details: average of 15 human cancer cell types, 48 hours exposure
# Protocol: Appropriate amounts of each of the human cancer cells suspended in 5% fetal bovine serum-supplemented medium were plated into a 96-well plate, and allowed to adhere to the wells in a 37° C. CO2 incubator overnight.
# These cancer cells were exposed to each anticancer agent for 48 hours. Cell growth was assayed by MTT. Absorbance of the control well (C) and the test well (T) was measured at 550 nm.
# The absorbance of the test well immediately after adding the drug (TO) was also measured. Using these measured values, GI 50 of each drug was calculated, and the drug concentration at that time was obtained. For comparison, a similar test was performed for each of the anticancer agents (Comparative Tests 4-1 to 4-7).
# [3] = system: C57BL/6 male mouse; details: for deaths versus administered animals: one-time
# [4] = system: OVCAR-3 ovarian cancer cells; assay: Antitumor test, transplanted tumor in nude mice; assay type: in vivo, human; details: control, drug without hydroxyapatite adsorption
# Text: (§1) (Experimental Test 5-1 to 5-5).
# (§2) Female nude mice (7 weeks old, 16 to 22 g) with a BALB/c genetic background were used for the tests. Human cancer cells used for the tests were GCIY stomach cancer cells, HCT-15 colon cancer cells, A549 lung cancer cells, and OVCAR-3 ovarian cancer cells. Human cancer cells were subcutaneously transplanted into nude mice, tumor lumps were formed, and these carcinomas were used for the tests.
# (§3) Aseptically collected tumors were sliced into tumors of 3×3×3 mm, and then subcutaneously transplanted into a new nude mouse. When the tumors reached a volume of 100 to 300 mm^3, the animals were arbitrarily divided into groups of six (Day 0). […] Intravascular administration was the administration route for all.
# (§4) After administration, between Days 24 to 31, the length (L) and width (W) of the tumor lump of the animal were measured twice a week, and the tumor volume (TV) was calculated according to the following formula: TV=(L×W^2)/2. Antitumor effect was determined at Day 14. The relative tumor volume (RTV) was obtained by the following formula: RTV=TV14/TV0, using values of the tumor volume at Day 0 and Day 14 (referred to as TV0 and TV14). Antitumor effect was evaluated as the tumor regression rate at Day 14 (T/C%). Herein, T/C %=100×(average RTV of the treated group)/(RTV of the control group).
# (§5) As a control, each drug was tested without hydroxyapatite adsorption (Comparative Tests 5-10 to 5-14).
# [5] = system: HCT-15 colon cancer cells; assay: Antitumor test, transplanted tumor in nude mice; assay type: in vivo, human; details: control, drug without hydroxyapatite adsorption
# Text: as §1, §2, §3, §4, §5
# [6] = system: GCIY stomach cancer cells; assay: Antitumor test, transplanted tumor in nude mice; assay type: in vivo, human; details: control, drug without hydroxyapatite adsorption
# Text: as §1, §2, §3, §4, §5
# [7] = system: A549 lung cancer cells; assay: Antitumor test, transplanted tumor in nude mice; assay type: in vivo, human; details: control, drug without hydroxyapatite adsorption
# Text: as §1, §2, §3, §4, §5
# [8] = intravascular, one-time administration, 14 days observation
# [9] = 10 mg/kg intravascular, 14 days observation
# [10] = 400 mg/kg oral, antitumor agent alone, 14 days observation
# [11] = 600 mg/kg oral, antitumor agent alone, 14 days observation
# [12] = 800 mg/kg oral, antitumor agent alone, 14 days observation
# [13] = 1000 mg/kg oral, antitumor agent alone, 14 days observation
# 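Throughout, for LD50: mice given a single dose and followed for 14 days, with deaths tallied, LD50 derived from the doses given and the resulting death counts.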
# 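Throughout, for deaths versus administered animals: mice given a single dose and followed for 14 days, with deaths tallied, LD50 derived from the doses given and the resulting death counts.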
molecule,measurement,setting,value
CS(=O)(=O)OCCCCOS(C)(=O)=O [Busulphan],LD50 at 14 days,[1]; po,40 mg/kg
N.N.O=C([O-])C1(C(=O)[O-])CCC1.[Pt+2] [Carboplatin],GI50,[2],75.7 µM
same,deaths versus administered animals,"[3]; 70 mg/kg intravascular, 14 days observation",0/6
same,deaths versus administered animals,"[3]; 80 mg/kg intravascular, 14 days observation",1/7
same,deaths versus administered animals,"[3]; 90 mg/kg intravascular, 14 days observation",3/6
same,deaths versus administered animals,"[3]; 100 mg/kg intravascular, 14 days observation",5/8
same,deaths versus administered animals,"[3]; 110 mg/kg intravascular, 14 days observation",7/8
same,deaths versus administered animals,"[3]; 120 mg/kg intravascular, 14 days observation",7/7
same,LD50,[3]; [8],93.0 mg/kg
same,LD50,"[3]; oral, antitumor agent alone (comparison), one-time administration, 14 days observation",350 mg/kg
COC(COC(N)=O)C1=C(N2CC2)C(=O)C(C)=C(N2CC2)C1=O (centres unmarked) [Carboquone],LD50,[1],5.8 mg/kg
N.N.[Cl][Pt][Cl] [Cisplatin],GI50,[2],7.21 µM
same,Regression rate of transplanted cancer (T/C %) at Day 14,[4],67%
same,Regression rate of transplanted cancer (T/C %) at Day 14,[5],53%
same,Regression rate of transplanted cancer (T/C %) at Day 14,[6],67%
same,Regression rate of transplanted cancer (T/C %) at Day 14,[7],79%
same,deaths versus administered animals,"[3]; 5.0 mg/kg intravascular, 14 days observation",1/8
same,deaths versus administered animals,"[3]; 7.5 mg/kg intravascular, 14 days observation",2/7
same,deaths versus administered animals,[3]; [9],5/8
same,deaths versus administered animals,"[3]; 12.5 mg/kg intravascular, 14 days observation",6/8
same,deaths versus administered animals,"[3]; 15 mg/kg intravascular, 14 days observation",5/6
same,deaths versus administered animals,"[3]; 17.5 mg/kg intravascular, 14 days observation",6/6
O=P1(N(CCCl)CCCl)NCCCO1 (centres unmarked) [Cyclophosphamide],LD50,[1],140 mg/kg
same,Regression rate of transplanted cancer (T/C %) at Day 14,[4],71%
same,Regression rate of transplanted cancer (T/C %) at Day 14,[5],52%
same,Regression rate of transplanted cancer (T/C %) at Day 14,[6],78%
same,Regression rate of transplanted cancer (T/C %) at Day 14,[7],86%
CCCCCCCCCCCCCCCCCCOP(=O)([O-])OC[C@H]1O[C@@H](n2ccc(N)nc2=O)[C@@H](O)[C@@H]1O.[Na+] [Cytarabine ocfosfate],deaths versus administered animals,"[3]; 250 mg/kg oral, antitumor agent alone, 14 days observation",0/5
same,deaths versus administered animals,"[3]; 300 mg/kg oral, antitumor agent alone, 14 days observation",1/5
same,deaths versus administered animals,[3]; [10],2/5
same,deaths versus administered animals,"[3]; 500 mg/kg oral, antitumor agent alone, 14 days observation",2/5
same,deaths versus administered animals,[3]; [11],3/5
same,deaths versus administered animals,"[3]; 700 mg/kg oral, antitumor agent alone, 14 days observation",3/5
same,deaths versus administered animals,[3]; [12],4/5
same,deaths versus administered animals,[3]; [13],5/5
same,LD50,"[3]; mouse, in vivo, po",524 mg/kg
CN(C)/N=N/c1[nH]cnc1C(N)=O [Dacarbazine],LD50,[1],452 mg/kg
C[C@H]1O[C@@H](n2cc(F)c(=O)[nH]c2=O)[C@H](O)[C@@H]1O [Doxifluridine],LD50,[1]; po,1200 mg/kg
C[C@]12CC[C@@H]3c4ccc(OC(=O)N(CCCl)CCCl)cc4CC[C@H]3[C@@H]1CC[C@@H]2OP(=O)(O)O [Estramustine sodium phosphate],LD50,[1]; po,380 mg/kg
COc1cc([C@@H]2c3cc4c(cc3[C@@H](O[C@@H]3O[C@@H]5CO[C@@H](C)O[C@H]5[C@H](O)[C@H]3O)[C@H]3COC(=O)[C@H]23)OCO4)cc(OC)c1O [Etoposide],LD50,[1],32.7 mg/kg
same,LD50,[1]; po,220 mg/kg
same,GI50,[2],5.11 µM
same,Regression rate of transplanted cancer (T/C %) at Day 14,[4],76%
same,Regression rate of transplanted cancer (T/C %) at Day 14,[5],67%
same,Regression rate of transplanted cancer (T/C %) at Day 14,[6],93%
same,Regression rate of transplanted cancer (T/C %) at Day 14,[7],72%
same,deaths versus administered animals,[3]; [9],0/6
same,deaths versus administered animals,"[3]; 20 mg/kg intravascular, 14 days observation",1/6
same,deaths versus administered animals,"[3]; 30 mg/kg intravascular, 14 days observation",2/6
same,deaths versus administered animals,"[3]; 40 mg/kg intravascular, 14 days observation",5/7
same,deaths versus administered animals,"[3]; 50 mg/kg intravascular, 14 days observation",5/6
same,deaths versus administered animals,"[3]; 60 mg/kg intravascular, 14 days observation",6/6
CC(C)C(=O)Nc1ccc([N+](=O)[O-])c(C(F)(F)F)c1 [Flutamide],LD50,[1]; po,772 mg/kg
CC(C)C[C@H](NC(=O)[C@@H](COC(C)(C)C)NC(=O)[C@H](Cc1ccc(O)cc1)NC(=O)[C@H](CO)NC(=O)[C@H](Cc1c[nH]c2ccccc12)NC(=O)[C@H](Cc1cnc[nH]1)NC(=O)[C@@H]1CCC(=O)N1)C(=O)N[C@@H](CCCNC(=N)N)C(=O)N1CCC[C@H]1C(=O)NNC(N)=O [Goserelin acetate],LD50,[1]; sc,36 mg/kg
NC(=O)NO [Hydroxycarbamide],LD50,[1]; po,2350 mg/kg
O=P1(NCCCl)OCCCN1CCCl (centres unmarked) [Ifosfamide],LD50,[1],325 mg/kg
same,LD50,[1]; po,996 mg/kg
N[C@@H](Cc1ccc(N(CCCl)CCCl)cc1)C(=O)O [Melphalan],LD50,[1],21 mg/kg
Sc1ncnc2nc[nH]c12 [Mercaptopurine],LD50,[1]; po,1090 mg/kg
CN(Cc1cnc2nc(N)nc(N)c2n1)c1ccc(C(=O)N[C@@H](CCC(=O)O)C(=O)O)cc1 [Methotrexate],LD50,[1]; ip,74 mg/kg
CO[C@@]12[C@H](COC(N)=O)C3=C(C(=O)C(C)=C(N)C3=O)N1C[C@@H]1N[C@@H]12 [Mitomycin C],GI50,[2],1.43 µM
CC(=O)O[C@H]1C(=O)[C@@]2(C)[C@H]([C@H](OC(=O)c3ccccc3)[C@]3(O)C[C@H](OC(=O)[C@H](O)[C@@H](NC(=O)c4ccccc4)c4ccccc4)C(C)=C1C3(C)C)[C@]1(OC(C)=O)CO[C@@H]1C[C@@H]2O [Paclitaxel],LD50,[1],12 mg/kg
CC(C)COC(=O)OCN1C(=O)CN(CCN2CC(=O)N(COC(=O)OCC(C)C)C(=O)C2)CC1=O [Sobuzoxane],deaths versus administered animals,"[3]; 200 mg/kg oral, antitumor agent alone, 14 days observation",0/5
same,deaths versus administered animals,[3]; [10],1/5
same,deaths versus administered animals,[3]; [11],1/6
same,deaths versus administered animals,[3]; [12],2/5
same,deaths versus administered animals,[3]; [13],3/5
same,deaths versus administered animals,"[3]; 1200 mg/kg oral, antitumor agent alone, 14 days observation",4/5
same,deaths versus administered animals,"[3]; 1400 mg/kg oral, antitumor agent alone, 14 days observation",6/6
O=c1[nH]c(=O)n(C2CCCO2)cc1F (centres unmarked) [Tegafur],LD50,[1]; ip,750 mg/kg
S=P(N1CC1)(N1CC1)N1CC1 [Thiotepa],LD50,[1],16.1 mg/kg
CN(C)CCOc1ccc(/C(=C(/CCCl)c2ccccc2)c2ccccc2)cc1 [Toremifene citrate],LD50,[1]; po,360 mg/kg
CC1=C(/C=C/C(C)=C/C=C/C(C)=C/C(=O)O)C(C)(C)CCC1 [Tretinoin],LD50,[1]; po,549 mg/kg
CC[C@]1(O)C[C@@H]2CN(CCc3c([nH]c4ccccc34)[C@@](C(=O)OC)(c3cc4c(cc3OC)N(C)[C@H]3[C@@](O)(C(=O)OC)[C@H](OC(C)=O)[C@]5(CC)C=CCN6CC[C@]43[C@@H]65)C2)C1 [Vinblastine sulfate],LD50,[1],5.6 mg/kg
same,LD50,[1]; po,427 mg/kg
CCC1=C[C@@H]2CN(C1)Cc1c([nH]c3ccccc13)[C@@](C(=O)OC)(c1cc3c(cc1OC)N(C)[C@H]1[C@@](O)(C(=O)OC)[C@H](OC(C)=O)[C@]4(CC)C=CCN5CC[C@]31[C@@H]54)C2 [Vinorelbine tartrate],LD50,[1],2.3 mg/kg
CCC1=C[C@@H]2CN(C1)Cc1c([nH]c3ccccc13)[C@@](C(=O)OC)(c1cc3c(cc1OC)N(C)[C@H]1[C@@](O)(C(=O)OC)[C@H](OC(C)=O)[C@]4(CC)C=CCN5CC[C@]31[C@@H]54)C2 [Vinorelbine],LD50,[1]; ip,29 mg/kg
Bleomycin hydrochloride,deaths versus administered animals,"[3]; 200 mg/kg intravascular, 14 days observation",0/5
same,deaths versus administered animals,"[3]; 250 mg/kg intravascular, 14 days observation",1/6
same,deaths versus administered animals,"[3]; 300 mg/kg intravascular, 14 days observation",3/7
same,deaths versus administered animals,"[3]; 350 mg/kg intravascular, 14 days observation",4/6
same,deaths versus administered animals,"[3]; 400 mg/kg intravascular, 14 days observation",4/5
same,deaths versus administered animals,"[3]; 500 mg/kg intravascular, 14 days observation",5/6
same,deaths versus administered animals,"[3]; 600 mg/kg intravascular, 14 days observation",6/6
same,LD50,[3]; [8],322.7 mg/kg
B1,LD50,"[3]; intraperitoneal, one-time administration, 14 days observation",1050 mg/kg

# Source: patent US20080138437A1, “Antitumor Agent” (priority 2004, published 2008)
